Measured values reported in the supplement of paper PMC10307832.

Key:
Test in all cases: relative viability (nuclei count vs DMSO), 5 days (fraction); higher = more cells survive
NCI-H2085 = tested on: NCI-H2085
Method in brief: (§1)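 One day after seeding in 1536-well plates, lung cancer cell lines were dosed by pin tool. Dosing was either single-drug or a fixed anchor-drug dose plus five library-drug doses (not always all listed) in √10 steps. After 5 days, nuclei were stained in one fix-and-stain step and counted on 4× images, and relative viability is the nuclei count of treated wells over that of vehicle wells, given as the median of duplicate plates.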

NCI-H661 = tested on: NCI-H661
Method in brief: as §1

LXF-289 = tested on: LXF-289
Method in brief: as §1

NCI-H1437 = tested on: NCI-H1437
Method in brief: as §1

ChaGo-K-1 = tested on: ChaGo-K-1
Method in brief: as §1

NCI-H441 = tested on: NCI-H441
Method in brief: as §1

EPLC-272H = tested on: EPLC-272H
Method in brief: as §1

NCI-H1793 = tested on: NCI-H1793
Method in brief: as §1

NCI-H3122 = tested on: NCI-H3122
Method in brief: as §1

LCLC-97TM1 = tested on: LCLC-97TM1
Method in brief: as §1

NCI-H596 = tested on: NCI-H596
Method in brief: as §1

HARA = tested on: HARA
Method in brief: as §1

NCI-H1650 = tested on: NCI-H1650
Method in brief: as §1

H3255 = tested on: H3255
Method in brief: as §1

HCC-78 = tested on: HCC-78
Method in brief: as §1

NCI-H1666 = tested on: NCI-H1666
Method in brief: as §1

NCI-H2087 = tested on: NCI-H2087
Method in brief: as §1

HOP-62 = tested on: HOP-62
Method in brief: as §1

NCI-H1395 = tested on: NCI-H1395
Method in brief: as §1

COR-L23 = tested on: COR-L23
Method in brief: as §1

NCI-H1944 = tested on: NCI-H1944
Method in brief: as §1

PC-14 = tested on: PC-14
Method in brief: as §1

NCI-H2126 = tested on: NCI-H2126
Method in brief: as §1

In the case of `Cc1csc(=NC2CCCCC2)n1/N=C/c1ccc(O)c(O)c1O` [MIM1] + O=C(c1cc(Cc2n[nH]c(=O)c3ccccc23)ccc1F)N1CCN(C(=O)C2CC2)CC1 [Olaparib] (partner 8 µM), the relative viability (NCI-H2085; first compound 0.2 µM) is reported as 0.768, the relative viability (NCI-H2085; first compound 0.6325 µM) is reported as 0.797 and the relative viability (NCI-H2085; first compound 2 µM) is reported as 0.771. For the same compound, the relative viability (NCI-H2085; first compound 6.325 µM) was 0.596, the relative viability (NCI-H2085; first compound 20 µM) was 0.641 and the relative viability (NCI-H661; first compound 0.2 µM) was 0.696. For the same compound, the relative viability (NCI-H661; first compound 0.6325 µM) was 0.715, the relative viability (NCI-H661; first compound 2 µM) was 0.778 and the relative viability (NCI-H661; first compound 6.325 µM) was 0.499. The relative viability (NCI-H661; first compound 20 µM) was 0.316, the relative viability (LXF-289; first compound 0.2 µM) was 1.04 and the relative viability (LXF-289; first compound 0.6325 µM) was 0.844. For the same compound, the relative viability (LXF-289; first compound 2 µM) was 1.13, the relative viability (LXF-289; first compound 6.325 µM) was 0.915 and the relative viability (LXF-289; first compound 20 µM) was 0.179. The relative viability (NCI-H1437; first compound 0.2 µM) was 0.615, the relative viability (NCI-H1437; first compound 0.6325 µM) was 0.644 and the relative viability (NCI-H1437; first compound 2 µM) was 0.58. The relative viability (NCI-H1437; first compound 6.325 µM) was 0.192, the relative viability (NCI-H1437; first compound 20 µM) was 0.206 and the relative viability (ChaGo-K-1; first compound 0.2 µM) was 0.399. It also gave a relative viability (ChaGo-K-1; first compound 0.6325 µM) of 0.346, a relative viability (ChaGo-K-1; first compound 2 µM) of 0.385 and a relative viability (ChaGo-K-1; first compound 6.325 µM) of 0.214. For the same compound, the relative viability (ChaGo-K-1; first compound 20 µM) was 0.127, the relative viability (NCI-H441; first compound 0.2 µM) was 0.485 and the relative viability (NCI-H441; first compound 0.6325 µM) was 0.66. For the same compound, the relative viability (NCI-H441; first compound 2 µM) was 0.581, the relative viability (NCI-H441; first compound 6.325 µM) was 0.254 and the relative viability (NCI-H441; first compound 20 µM) was 0.144. For the same compound, the relative viability (EPLC-272H; first compound 0.2 µM) was 0.664, the relative viability (EPLC-272H; first compound 0.6325 µM) was 0.858 and the relative viability (EPLC-272H; first compound 2 µM) was 0.622. It also gave a relative viability (EPLC-272H; first compound 6.325 µM) of 0.111, a relative viability (EPLC-272H; first compound 20 µM) of 0.108 and a relative viability (NCI-H1793; first compound 0.2 µM) of 0.942. For the same compound, the relative viability (NCI-H1793; first compound 2 µM) was 0.899, the relative viability (NCI-H1793; first compound 6.325 µM) was 0.686 and the relative viability (NCI-H1793; first compound 20 µM) was 0.839. It also gave a relative viability (NCI-H3122; first compound 0.2 µM) of 0.626, a relative viability (NCI-H3122; first compound 0.6325 µM) of 0.643 and a relative viability (NCI-H3122; first compound 2 µM) of 0.618. The relative viability (NCI-H3122; first compound 6.325 µM) was 0.325, the relative viability (NCI-H3122; first compound 20 µM) was 0.113 and the relative viability (LCLC-97TM1; first compound 0.2 µM) was 0.436. It also gave a relative viability (LCLC-97TM1; first compound 0.6325 µM) of 0.46, a relative viability (LCLC-97TM1; first compound 2 µM) of 0.343 and a relative viability (LCLC-97TM1; first compound 6.325 µM) of 0.24. For the same compound, the relative viability (LCLC-97TM1; first compound 20 µM) was 0.0564, the relative viability (NCI-H596; first compound 0.2 µM) was 0.741 and the relative viability (NCI-H596; first compound 0.6325 µM) was 0.73. For the same compound, the relative viability (NCI-H596; first compound 2 µM) was 0.694, the relative viability (NCI-H596; first compound 6.325 µM) was 0.626 and the relative viability (NCI-H596; first compound 20 µM) was 0.491. The relative viability (HARA; first compound 0.2 µM) was 0.792, the relative viability (HARA; first compound 0.6325 µM) was 1.06 and the relative viability (HARA; first compound 2 µM) was 0.824. For the same compound, the relative viability (HARA; first compound 6.325 µM) was 0.187, the relative viability (HARA; first compound 20 µM) was 0.177 and the relative viability (NCI-H1650; first compound 0.2 µM) was 0.627. For the same compound, the relative viability (NCI-H1650; first compound 0.6325 µM) was 0.828, the relative viability (NCI-H1650; first compound 2 µM) was 0.499 and the relative viability (NCI-H1650; first compound 6.325 µM) was 0.226. For the same compound, the relative viability (NCI-H1650; first compound 20 µM) was 0.233, the relative viability (H3255; first compound 0.2 µM) was 0.535 and the relative viability (H3255; first compound 0.6325 µM) was 0.541. It also gave a relative viability (H3255; first compound 2 µM) of 0.518, a relative viability (H3255; first compound 6.325 µM) of 0.473 and a relative viability (H3255; first compound 20 µM) of 0.253. For the same compound, the relative viability (HCC-78; first compound 0.2 µM) was 0.716, the relative viability (HCC-78; first compound 2 µM) was 0.906 and the relative viability (HCC-78; first compound 6.325 µM) was 0.47. The relative viability (HCC-78; first compound 20 µM) was 0.462, the relative viability (NCI-H1666; first compound 0.2 µM) was 0.71 and the relative viability (NCI-H1666; first compound 0.6325 µM) was 0.739. It also gave a relative viability (NCI-H1666; first compound 2 µM) of 0.665, a relative viability (NCI-H1666; first compound 6.325 µM) of 0.72 and a relative viability (NCI-H1666; first compound 20 µM) of 0.707. For the same compound, the relative viability (NCI-H2087; first compound 0.2 µM) was 0.535, the relative viability (NCI-H2087; first compound 0.6325 µM) was 0.701 and the relative viability (NCI-H2087; first compound 2 µM) was 0.702. The relative viability (NCI-H2087; first compound 6.325 µM) was 0.481, the relative viability (NCI-H2087; first compound 20 µM) was 0.241 and the relative viability (HOP-62; first compound 0.2 µM) was 0.424. It also gave a relative viability (HOP-62; first compound 0.6325 µM) of 0.529, a relative viability (HOP-62; first compound 2 µM) of 0.169 and a relative viability (HOP-62; first compound 6.325 µM) of 0.293. It also gave a relative viability (HOP-62; first compound 20 µM) of 0.115, a relative viability (NCI-H1395; first compound 0.2 µM) of 0.454 and a relative viability (NCI-H1395; first compound 0.6325 µM) of 0.485. For the same compound, the relative viability (NCI-H1395; first compound 2 µM) was 0.414, the relative viability (NCI-H1395; first compound 6.325 µM) was 0.436 and the relative viability (NCI-H1395; first compound 20 µM) was 0.346. For the same compound, the relative viability (COR-L23; first compound 0.2 µM) was 0.29, the relative viability (COR-L23; first compound 0.6325 µM) was 0.365 and the relative viability (COR-L23; first compound 2 µM) was 0.287. It also gave a relative viability (COR-L23; first compound 6.325 µM) of 0.224, a relative viability (COR-L23; first compound 20 µM) of 0.164 and a relative viability (NCI-H1944; first compound 0.2 µM) of 0.405. The relative viability (NCI-H1944; first compound 0.6325 µM) was 0.422, the relative viability (NCI-H1944; first compound 2 µM) was 0.352 and the relative viability (NCI-H1944; first compound 6.325 µM) was 0.32. The relative viability (NCI-H1944; first compound 20 µM) was 0.131, the relative viability (PC-14; first compound 0.2 µM) was 0.276 and the relative viability (PC-14; first compound 0.6325 µM) was 0.283. The relative viability (PC-14; first compound 2 µM) was 0.228, the relative viability (PC-14; first compound 6.325 µM) was 0.232 and the relative viability (PC-14; first compound 20 µM) was 0.0784. It also gave a relative viability (NCI-H2126; first compound 0.2 µM) of 0.936, a relative viability (NCI-H2126; first compound 0.6325 µM) of 0.879 and a relative viability (NCI-H2126; first compound 2 µM) of 0.916. The relative viability (NCI-H2126; first compound 6.325 µM) was 0.849 and the relative viability (NCI-H2126; first compound 20 µM) was 0.401.
